#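 Exposure lasted 48 hours, with cells grown in 96-well plates and compounds tested at five concentrations. GI50: concentration for 50% inhibition of growth. TGI: concentration producing complete growth inhibition.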
# Columns and labels:
# Assay in all cases: growth of human tumour cells (NCI), 48 h
# DU-145 prostate = tested on: DU-145 prostate
# TK-10 renal = tested on: TK-10 renal
# HOP-92 NSCLC = tested on: HOP-92 NSCLC
# BT-549 breast = tested on: BT-549 breast
# NCI-H226 lung = tested on: NCI-H226 lung
# MDA-MB-435 = tested on: MDA-MB-435
# CCRF-CEM leukemia = tested on: CCRF-CEM leukemia
# SW-620 colon = tested on: SW-620 colon
# MDA-MB-231 breast = tested on: MDA-MB-231 breast
# ACHN renal = tested on: ACHN renal
# SNB-19 CNS = tested on: SNB-19 CNS
# HS 578T breast = tested on: HS 578T breast
# CAKI-1 renal = tested on: CAKI-1 renal
# UO-31 renal = tested on: UO-31 renal
# PC-3 prostate = tested on: PC-3 prostate
# SF-268 CNS = tested on: SF-268 CNS
# HCT-116 colon = tested on: HCT-116 colon
# UACC-62 melanoma = tested on: UACC-62 melanoma
# SR leukemia = tested on: SR leukemia
# SK-MEL-28 melanoma = tested on: SK-MEL-28 melanoma
# NCI-H522 lung = tested on: NCI-H522 lung
# HOP-62 NSCLC = tested on: HOP-62 NSCLC
# A498 renal = tested on: A498 renal
# U251 CNS = tested on: U251 CNS
# OVCAR-8 ovarian = tested on: OVCAR-8 ovarian
# OVCAR-5 ovarian = tested on: OVCAR-5 ovarian
# 786-0 renal = tested on: 786-0 renal
# COLO 205 colon = tested on: COLO 205 colon
# HT29 colon = tested on: HT29 colon
# SK-MEL-5 melanoma = tested on: SK-MEL-5 melanoma
# MCF7 breast = tested on: MCF7 breast
# UACC-257 melanoma = tested on: UACC-257 melanoma
# RPMI-8226 leukemia = tested on: RPMI-8226 leukemia
# NCI-H460 lung = tested on: NCI-H460 lung
# T-47D breast = tested on: T-47D breast
# MOLT-4 leukemia = tested on: MOLT-4 leukemia
# RXF 393 renal = tested on: RXF 393 renal
# K-562 leukemia = tested on: K-562 leukemia
# SNB-75 CNS = tested on: SNB-75 CNS
# NCI/ADR-RES ovarian = tested on: NCI/ADR-RES ovarian
# OVCAR-4 ovarian = tested on: OVCAR-4 ovarian
# SK-OV-3 ovarian = tested on: SK-OV-3 ovarian
# KM12 colon = tested on: KM12 colon
# SF-295 CNS = tested on: SF-295 CNS
# OVCAR-3 ovarian = tested on: OVCAR-3 ovarian
# NCI-H23 lung = tested on: NCI-H23 lung
# EKVX NSCLC = tested on: EKVX NSCLC
# MALME-3M melanoma = tested on: MALME-3M melanoma
# HCT-15 colon = tested on: HCT-15 colon
# HCC-2998 colon = tested on: HCC-2998 colon
# A549 NSCLC = tested on: A549 NSCLC
# IGROV1 ovarian = tested on: IGROV1 ovarian
# M14 melanoma = tested on: M14 melanoma
# SF-539 CNS = tested on: SF-539 CNS
# HL-60(TB) leukemia = tested on: HL-60(TB) leukemia
# SN12C renal = tested on: SN12C renal
# LOX IMVI melanoma = tested on: LOX IMVI melanoma
compound,measurement,setting,value
CC(C)(C)c1ccc(OCCCCCCN2CCNCC2)cc1,GI50,DU-145 prostate,10.5 µM
same,TGI,DU-145 prostate,23.2 µM
same,GI50,TK-10 renal,13.9 µM
same,TGI,TK-10 renal,27.8 µM
same,GI50,HOP-92 NSCLC,3.31 µM
same,TGI,HOP-92 NSCLC,19.7 µM
same,GI50,BT-549 breast,10.5 µM
same,TGI,BT-549 breast,27.1 µM
same,GI50,NCI-H226 lung,15.3 µM
same,TGI,NCI-H226 lung,34.3 µM
same,GI50,MDA-MB-435,3.17 µM
same,TGI,MDA-MB-435,11.9 µM
same,GI50,CCRF-CEM leukemia,2.88 µM
same,TGI,CCRF-CEM leukemia,12 µM
same,GI50,SW-620 colon,2.14 µM
same,TGI,SW-620 colon,5.19 µM
same,GI50,MDA-MB-231 breast,2.53 µM
same,TGI,MDA-MB-231 breast,7.97 µM
same,GI50,ACHN renal,5.01 µM
same,TGI,ACHN renal,17.5 µM
same,GI50,SNB-19 CNS,8.06 µM
same,TGI,SNB-19 CNS,24.4 µM
same,GI50,HS 578T breast,6.15 µM
same,TGI,HS 578T breast,25.1 µM
same,GI50,CAKI-1 renal,4.72 µM
same,TGI,CAKI-1 renal,17 µM
same,GI50,UO-31 renal,12.2 µM
same,TGI,UO-31 renal,25.6 µM
same,GI50,PC-3 prostate,8.28 µM
same,TGI,PC-3 prostate,24.4 µM
same,GI50,SF-268 CNS,10.7 µM
same,TGI,SF-268 CNS,24.4 µM
same,GI50,HCT-116 colon,3.18 µM
same,TGI,HCT-116 colon,13.9 µM
same,GI50,UACC-62 melanoma,2.33 µM
same,TGI,UACC-62 melanoma,5.77 µM
same,GI50,SR leukemia,2.04 µM
same,TGI,SR leukemia,5.85 µM
same,GI50,SK-MEL-28 melanoma,3.23 µM
same,TGI,SK-MEL-28 melanoma,11.4 µM
same,GI50,NCI-H522 lung,13.6 µM
same,TGI,NCI-H522 lung,31.7 µM
same,GI50,HOP-62 NSCLC,11 µM
same,TGI,HOP-62 NSCLC,25.8 µM
same,GI50,A498 renal,9.44 µM
same,TGI,A498 renal,23.1 µM
same,GI50,U251 CNS,3.32 µM
same,TGI,U251 CNS,13.2 µM
same,GI50,OVCAR-8 ovarian,14.6 µM
same,TGI,OVCAR-8 ovarian,33.5 µM
same,GI50,OVCAR-5 ovarian,13.7 µM
same,TGI,OVCAR-5 ovarian,29.4 µM
same,GI50,786-0 renal,3.34 µM
same,TGI,786-0 renal,11.6 µM
same,GI50,COLO 205 colon,1.95 µM
same,TGI,COLO 205 colon,4.09 µM
same,GI50,HT29 colon,2.64 µM
same,TGI,HT29 colon,10.5 µM
same,GI50,SK-MEL-5 melanoma,1.87 µM
same,TGI,SK-MEL-5 melanoma,3.49 µM
same,GI50,MCF7 breast,3.03 µM
same,TGI,MCF7 breast,10.3 µM
same,GI50,UACC-257 melanoma,10.5 µM
same,TGI,UACC-257 melanoma,22.9 µM
same,GI50,RPMI-8226 leukemia,2.5 µM
same,TGI,RPMI-8226 leukemia,6.46 µM
same,GI50,NCI-H460 lung,3.21 µM
same,TGI,NCI-H460 lung,11.4 µM
same,GI50,T-47D breast,2.22 µM
same,TGI,T-47D breast,5.94 µM
same,GI50,MOLT-4 leukemia,1.82 µM
same,TGI,MOLT-4 leukemia,5.07 µM
same,GI50,RXF 393 renal,1.91 µM
same,TGI,RXF 393 renal,4.12 µM
same,GI50,K-562 leukemia,1.75 µM
same,TGI,K-562 leukemia,4.48 µM
same,GI50,SNB-75 CNS,3.12 µM
same,TGI,SNB-75 CNS,16 µM
same,GI50,NCI/ADR-RES ovarian,14.3 µM
same,TGI,NCI/ADR-RES ovarian,33.7 µM
same,GI50,OVCAR-4 ovarian,9.46 µM
same,TGI,OVCAR-4 ovarian,23.9 µM
same,GI50,SK-OV-3 ovarian,10.9 µM
same,TGI,SK-OV-3 ovarian,24.7 µM
same,GI50,KM12 colon,3.89 µM
same,TGI,KM12 colon,13.8 µM
same,GI50,SF-295 CNS,8.82 µM
same,TGI,SF-295 CNS,22.3 µM
same,GI50,OVCAR-3 ovarian,7.38 µM
same,TGI,OVCAR-3 ovarian,20.8 µM
same,GI50,NCI-H23 lung,7.59 µM
same,TGI,NCI-H23 lung,23 µM
same,GI50,EKVX NSCLC,10.2 µM
same,TGI,EKVX NSCLC,24.2 µM
same,GI50,MALME-3M melanoma,3.27 µM
same,TGI,MALME-3M melanoma,13.1 µM
same,GI50,HCT-15 colon,3.04 µM
same,TGI,HCT-15 colon,10 µM
same,GI50,HCC-2998 colon,2.38 µM
same,TGI,HCC-2998 colon,4.62 µM
same,GI50,A549 NSCLC,6.95 µM
same,TGI,A549 NSCLC,21.2 µM
same,GI50,IGROV1 ovarian,6.34 µM
same,TGI,IGROV1 ovarian,22.6 µM
same,GI50,M14 melanoma,3.22 µM
same,TGI,M14 melanoma,13.5 µM
same,GI50,SF-539 CNS,5.98 µM
same,TGI,SF-539 CNS,20.6 µM
same,GI50,HL-60(TB) leukemia,1.98 µM
same,TGI,HL-60(TB) leukemia,4.32 µM
same,GI50,SN12C renal,11.7 µM
same,TGI,SN12C renal,27.8 µM
same,GI50,LOX IMVI melanoma,1.83 µM
same,TGI,LOX IMVI melanoma,3.66 µM

# Source: PubChem BioAssay (NCI)
